This note sets out measurements from ChEMBL document CHEMBL1201862, “PubChem BioAssay data set” (2004).

Some test systems named below: 786-0; ACHN; CAKI-1; CCRF-CEM; HCT-116; HOP-62; HOP-92; HT-29; K562; KM12; LOX IMVI; MCF7; NCI-H226; OVCAR-8; RPMI-8226; SF-295; SK-MEL-5; SK-OV-3; SR; UO-31.
Common to all, as to test: NCI tumour cell line growth inhibition, 48 h

The structures appear in SMILES notation.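 Each compound was tested at five concentrations against cells in 96-well plates for 48 hours. GI50 = concentration required for 50% inhibition of growth.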 Active and inactive are the calls of the source. No stated cut-off is given here; in the data, active = GI50 up to about 1.1 µM and inactive = higher. Where only a bound is given, the exact number is not on record here.

For `O=C1C(Cl)C(c2cccc(Cl)c2)N1c1ccc(-n2c(S)nc3ccccc3c2=O)cc1` (stereo not given), the GI50 was 19 µM (inactive) in the test on 786-0; 18.7 µM (inactive) in the test on ACHN; 34.7 µM (inactive) with CAKI-1; 23 µM (inactive) with CCRF-CEM; 24.4 µM (inactive) in the test with HCT-116; 23.9 µM (inactive) in the test with HOP-62. In addition, the GI50 was 19.9 µM (inactive) in the test with HOP-92; 18.8 µM (inactive) in the test on HT-29; 17.9 µM (inactive) in the test on K562; 28.4 µM (inactive) with KM12; 13.9 µM (inactive) in the test with LOX IMVI; 14.7 µM (inactive) in the test with MCF7. Moreover, the GI50 was 25.4 µM (inactive) in the test with NCI-H226; 37.3 µM (inactive) in the test on OVCAR-8; 17.9 µM (inactive) in the test with RPMI-8226; 19.2 µM (inactive) in the test on SF-295; 15.1 µM (inactive) in the test on SK-MEL-5; 20.6 µM (inactive) with SK-OV-3. Further, the GI50 is 10.7 µM (inactive) in the test with SR and 20 µM (inactive) in the test on UO-31.
Take `O=C(O)C1CCc2ccc3ccccc3c2C1c1cccc2ccccc12` (stereo not given): the GI50 was 18.2 µM (inactive) in the test on 786-0; 29.6 µM (inactive) in the test on ACHN; 68.2 µM (inactive) in the test with CAKI-1; 19.1 µM (inactive) with CCRF-CEM; 15.6 µM (inactive) with HCT-116; 19 µM (inactive) in the test on HOP-62. The GI50 in the test with HOP-92 was 19.1 µM (inactive); in the test with HT-29 it was 17.4 µM (inactive); with K562, 32.3 µM (inactive); in the test on KM12, 21.9 µM (inactive); in the test with LOX IMVI, 19.5 µM (inactive); in the test on MCF7, 34.7 µM (inactive). Besides, the GI50 in the test on NCI-H226 was 24.7 µM (inactive); with OVCAR-8, 24.2 µM (inactive); in the test with RPMI-8226, 27.9 µM (inactive); in the test with SF-295, 23.9 µM (inactive); with SK-MEL-5 it was 16.5 µM (inactive); in the test with SK-OV-3, 36.1 µM (inactive). The GI50 in the test on SR was 20.8 µM (inactive); in the test with UO-31, 25.8 µM (inactive).
Turning to `CC(C)CC(=O)OC[n+]1ccc(-c2c(COC(=O)NC(C)C)c(COC(=O)NC(C)C)c3n2CCC3)cc1`, the GI50 in the test on 786-0 was > 100 µM (inactive); in the test with ACHN, 38.3 µM (inactive); in the test on CAKI-1 it was 45.2 µM (inactive); in the test on CCRF-CEM it was 64.4 µM (inactive); in the test with HCT-116, > 100 µM (inactive); in the test with HOP-62 it was > 100 µM (inactive). For the same molecule, the GI50 is > 100 µM (inactive) in the test with HOP-92; > 100 µM (inactive) with HT-29; > 100 µM (inactive) with K562; > 100 µM (inactive) in the test on KM12; > 100 µM (inactive) in the test on LOX IMVI; 76.4 µM (inactive) in the test on MCF7. For the same molecule, the GI50 in the test with NCI-H226, in the test on OVCAR-8, in the test on RPMI-8226, in the test on SF-295, in the test on SK-MEL-5 and in the test with SK-OV-3 was > 100 µM (inactive) in each case. The results for the GI50 in the test on SR and in the test with UO-31 were 6.19 µM (inactive) and > 100 µM (inactive), respectively.
Turning to `O=C1N/C(=N/N=C\c2ccccc2)N/C1=C/c1ccccc1`, the GI50 was 33.6 µM (inactive) in the test with 786-0; 13.2 µM (inactive) in the test on ACHN; 27.8 µM (inactive) in the test with CAKI-1; 23.2 µM (inactive) with CCRF-CEM; 34.6 µM (inactive) with HCT-116; 19.5 µM (inactive) in the test on HOP-62. The GI50 was 22.2 µM (inactive) in the test with HOP-92; 24.9 µM (inactive) in the test on HT-29; 21.3 µM (inactive) with K562; 22.5 µM (inactive) in the test on KM12; 35.9 µM (inactive) with LOX IMVI; 31.5 µM (inactive) with MCF7. The GI50 in the test on NCI-H226 was 14.8 µM (inactive); in the test on OVCAR-8 it was 26.2 µM (inactive); in the test on RPMI-8226, 26.6 µM (inactive); in the test with SF-295 it was 38.9 µM (inactive); with SK-MEL-5, 35.4 µM (inactive); in the test with SK-OV-3, 37.7 µM (inactive). In addition, the GI50 is 16.1 µM (inactive) with SR and 41.9 µM (inactive) in the test on UO-31.
On to `COC(=O)c1ccccc1NC(=O)C(=O)CC(=O)c1ccccc1NC1=CC(=O)C(=O)c2ccccc21`, for which the GI50 in the test with 786-0 is 5.65 µM (inactive); in the test on ACHN it was 14.5 µM (inactive); in the test with CAKI-1, 23.8 µM (inactive); with CCRF-CEM it was 3.17 µM (inactive); in the test with HCT-116, 4.67 µM (inactive); in the test on HOP-62 it was 22.7 µM (inactive). The GI50 is 5.16 µM (inactive) with HOP-92; 44.5 µM (inactive) with HT-29; 2.91 µM (inactive) with K562; 15.2 µM (inactive) in the test on KM12; 1.68 µM (inactive) in the test with LOX IMVI; 8.87 µM (inactive) in the test with MCF7. Also, the GI50 in the test with NCI-H226 was 25.9 µM (inactive); in the test with OVCAR-8 it was 7.01 µM (inactive); in the test with RPMI-8226, 2.64 µM (inactive); in the test on SF-295, 15.6 µM (inactive); with SK-MEL-5 it was 5.13 µM (inactive); in the test with SK-OV-3, 32.5 µM (inactive). For the same molecule, the GI50 in the test on SR was 2.67 µM (inactive); in the test on UO-31 it was 15.1 µM (inactive).
As for `O=C(OC1C2OC(=O)c3cc(O)c(O)c(O)c3Oc3cc4c(c(O)c3O)-c3c(cc(O)c(O)c3O)C(=O)OCC3OC(O)C(OC(=O)c5cc(O)c(O)c(O)c5Oc5cc6c(c(O)c5O)-c5c(cc(O)c(O)c5O)C(=O)OC1C(COC6=O)OC2O)C(OC(=O)c1cc(O)c(O)c(O)c1)C3OC4=O)c1cc(O)c(O)c(O)c1` (stereo not given), the GI50 with 786-0 is 21 µM (inactive); in the test on ACHN, 38.9 µM (inactive); in the test with CAKI-1 it was 38.3 µM (inactive); in the test on CCRF-CEM it was 3.61 µM (inactive); in the test on HCT-116, 16.4 µM (inactive); with HOP-62, 23.4 µM (inactive). Also, the GI50 with HOP-92 was 19 µM (inactive); in the test with HT-29, 17.9 µM (inactive); in the test on K562, 7.8 µM (inactive); with KM12 it was 3.36 µM (inactive); with LOX IMVI it was 17.9 µM (inactive); with MCF7, 50.7 µM (inactive). The GI50 is 22.4 µM (inactive) with NCI-H226; 27 µM (inactive) in the test with OVCAR-8; 4.59 µM (inactive) in the test on RPMI-8226; 14.7 µM (inactive) with SF-295; 53.8 µM (inactive) in the test on SK-MEL-5; 12.5 µM (inactive) in the test with SK-OV-3. Moreover, the GI50 in the test on SR is 4.61 µM (inactive); in the test with UO-31, 4.8 µM (inactive).
For `COc1ccc(C2C3COc4ccccc4C3=NN2c2ccccc2)cc1` (stereo not given), the GI50 with 786-0, with ACHN, in the test on CAKI-1, in the test on CCRF-CEM, in the test with HCT-116 and in the test on HOP-62 was > 100 µM (inactive) each time. Moreover, the GI50 with HOP-92 is > 100 µM (inactive); in the test with HT-29, 87.1 µM (inactive); in the test with K562 it was > 100 µM (inactive); in the test on KM12 it was > 100 µM (inactive); with LOX IMVI, > 100 µM (inactive); in the test with MCF7, 63.8 µM (inactive). Besides, the GI50 in the test with NCI-H226, in the test with OVCAR-8, with RPMI-8226, with SF-295, in the test on SK-MEL-5 and in the test with SK-OV-3 was > 100 µM (inactive) in each case. Moreover, the GI50 in the test with SR was 31.6 µM (inactive); in the test with UO-31, > 100 µM (inactive).
`c1ccc2c(NCCCCCCCCNc3c4ccccc4nc4ccccc34)c3ccccc3nc2c1`: the GI50 in the test with 786-0 is 0.106 µM (active); with ACHN, 0.0703 µM (active); in the test with CAKI-1, 0.546 µM (active); in the test on CCRF-CEM, < 0.0278 µM (active); in the test with HCT-116, 0.0392 µM (active); with HOP-62 it was 0.224 µM (active). Besides, the GI50 with HOP-92 was 1.48 µM (inactive); with HT-29, < 0.0281 µM (active); in the test with K562, 0.0469 µM (active); in the test with KM12 it was 0.187 µM (active); with LOX IMVI, 0.181 µM (active); in the test on MCF7, 0.0578 µM (active). Moreover, the GI50 in the test with NCI-H226 is 1.35 µM (inactive); in the test with OVCAR-8, 0.27 µM (active); in the test with RPMI-8226, 0.0828 µM (active); with SF-295, 0.693 µM (active); in the test on SK-MEL-5 it was 1.39 µM (inactive); in the test with SK-OV-3 it was 0.553 µM (active). Moreover, the GI50 with SR was 0.024 µM (active); with UO-31, 1.35 µM (inactive).
As to `CCC1=C(C=O)c2cc3[nH]c(cc4nc(c5c6[nH]c(cc1n2)c(C)c6C(=O)C5C(=O)OC)C(CCC(=O)OC)C4C)c(C)c3CC` (stereo not given), the GI50 in the test on 786-0, with ACHN, in the test with CAKI-1, in the test with CCRF-CEM, in the test on HCT-116 and in the test on HOP-62 was > 100 µM (inactive) in each case. In addition, the GI50 in the test with HOP-92, in the test with HT-29, with K562, in the test on KM12, in the test on LOX IMVI and in the test with MCF7 was > 100 µM (inactive) each time. Moreover, the GI50 with NCI-H226, in the test on OVCAR-8, in the test with RPMI-8226, in the test on SF-295, in the test with SK-MEL-5 and in the test with SK-OV-3 was > 100 µM (inactive) throughout. The GI50 in the test on SR and in the test with UO-31 was > 100 µM (inactive) each time.
Consider `CCn1c(-c2ccccc2)cs/c1=N\C(P(=O)(O)O)P(=O)(O)O`, for which the GI50 with 786-0 was > 100 µM (inactive); in the test on ACHN, > 100 µM (inactive); in the test with CAKI-1, > 100 µM (inactive); in the test on CCRF-CEM it was 2.05 µM (inactive); with HCT-116, > 100 µM (inactive); with HOP-62, > 100 µM (inactive). Besides, the GI50 with HOP-92, in the test on HT-29, in the test with K562, in the test with KM12, with LOX IMVI and with MCF7 was > 100 µM (inactive) each time. In addition, the GI50 in the test on NCI-H226, in the test with OVCAR-8, in the test on RPMI-8226, with SF-295, in the test on SK-MEL-5 and with SK-OV-3 was > 100 µM (inactive) each time. Also, the GI50 in the test on SR and in the test on UO-31 was > 100 µM (inactive) throughout.
